pIC50: −log10 of the molar value. Values joined by “and” are separate entries in the source; they are usually repeats but may differ in a detail not shown here. Equal entries are not always repeated.
Legend:
Assay type in all cases: binding
SERT WT [1] = molecular target: T1, SERT WT (Homo sapiens, UniProt P31645); assay: [3H]S-CIT dissociation rate assay (allosteric potency)
T1 construct: expressed in transfected cells; host or cells: COS-7

SERT WT [2] = molecular target: T1, SERT WT; assay: [3H]IMI dissociation rate assay (allosteric potency);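 further: membranes of COS-7 cells transiently expressing hSERT, dissociation of prebound radioligand tracked by filtration over seven time points (5–70 min), rate constant with test ligand expressed relative to buffer-only rate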
SERT A331D = molecular target: T2, SERT A331D (Homo sapiens, UniProt P31645, A331D); assay: [3H]IMI dissociation rate assay
T2 construct: expressed in transfected cells; host or cells: COS-7
Method: (§1) All mutations were confirmed by DNA sequencing. The used primers were
(§2) The allosteric potency was calculated as previously described.

SERT A486E = molecular target: T3, SERT A486E (Homo sapiens, UniProt P31645, A486E); assay: [3H]IMI dissociation rate assay
T3 construct: expressed in transfected cells; host or cells: COS-7
Method: as §1, §2

SERT A486E-K490A = molecular target: T4, SERT A486E-K490A (Homo sapiens, UniProt P31645, A486E/K490A); assay: [3H]IMI dissociation rate assay
T4 construct: expressed in transfected cells; host or cells: COS-7
Method: as §1, §2

SERT D328N = molecular target: T5, SERT D328N (Homo sapiens, UniProt P31645, D328N); assay: [3H]IMI dissociation rate assay
T5 construct: expressed in transfected cells; host or cells: COS-7
Method: as §1, §2

SERT E494K = molecular target: T6, SERT E494K (Homo sapiens, UniProt P31645, E494K); assay: [3H]IMI dissociation rate assay
T6 construct: expressed in transfected cells; host or cells: COS-7
Method: as §1, §2

SERT F556L = molecular target: T7, SERT F556L (Homo sapiens, UniProt P31645, F556L); assay: [3H]IMI dissociation rate assay
T7 construct: expressed in transfected cells; host or cells: COS-7
Method: as §1, §2

SERT F556R = molecular target: T8, SERT F556R (Homo sapiens, UniProt P31645, F556R); assay: [3H]IMI dissociation rate assay
T8 construct: expressed in transfected cells; host or cells: COS-7
Method: as §1, §2

[^3H]S-CIT dissociation relative to control (source data Fig 3B) (SERT WT [1]; log conc -4): 0.1541 and 0.1918 and 0.2298 | [^3H]S-CIT dissociation relative to control (source data Fig 3B) (SERT WT [1]; log conc -6.86273): 0.9943 and 0.9294 and 0.9623 | pIC50 (SERT WT [1]; read-out: Allosteric potency inhibition of [^3H]S-CIT dissociation (IC50)): 5.19 | Higher allosteric potency with prebound [^3H]IMI relative to prebound [^3H]S-CIT (SERT WT [2]; SERT WT): 200 fold | [^3H]IMI dissociation relative to control (source data Fig 3C) (SERT WT [2]; SERT WT, log conc -5.4318): 0.0325 | [^3H]IMI dissociation relative to control (source data Fig 3C) (SERT WT [2]; SERT WT, log conc -8.7712): 0.9679 and 0.8619 | pIC50 (SERT WT [2]; SERT WT, read-out: Allosteric potency inhibition of [^3H]IMI dissociation (IC50)): 7.50 and 7.51 | Gain in allosteric potency relative to any other reported S2-bound hSERT ligand (SERT WT [2]; comparison with ref 22): > 100 fold | Increase in allosteric potency compared with citalopram (SERT WT [2]; in the presence of S1:IMI): > 150 fold | ΔAP (mut/WT), change in allosteric potency relative to SERT WT (SERT A331D; A331D, [^3H]IMI dissociation): 293 | [^3H]IMI dissociation relative to control (source data Fig 4B) (SERT A331D; A331D, log conc -4.478): 0.2078 and 0.1902 and 0.1898 | [^3H]IMI dissociation relative to control (source data Fig 4B) (SERT A331D; A331D, log conc -4.955): 0.4404 and 0.4549 and 0.4274 | [^3H]IMI dissociation relative to control (source data Fig 4B) (SERT A331D; A331D, log conc -5.432): 0.7451 and 0.6969 and 0.749 | [^3H]IMI dissociation relative to control (source data Fig 4B) (SERT A331D; A331D, log conc -5.91): 0.8665 and 0.8882 and 0.9518 | [^3H]IMI dissociation relative to control (source data Fig 4B) (SERT A331D; A331D, log conc -6.386): 0.9951 and 1.0052 and 1.0336 | [^3H]IMI dissociation relative to control (source data Fig 4B) (SERT A331D; A331D, log conc -6.863): 1.0294 and 1.1129 and 0.9351 | [^3H]IMI dissociation relative to control (source data Fig 4B) (SERT A331D; A331D, log conc -7.34): 0.9855 and 0.9441 and 1.0485 | pIC50 (SERT A331D; SERT A331D (TM6), read-out: Lu AF60097 allosteric potency ([^3H]IMI dissociation IC50)): 5.04 | ΔAP (mut/WT), change in allosteric potency relative to SERT WT (SERT A486E; A486E, [^3H]IMI dissociation): 15 | pIC50 (SERT A486E; SERT A486E (TM10), read-out: Lu AF60097 allosteric potency ([^3H]IMI dissociation IC50)): 6.33 | ΔAP (mut/WT), change in allosteric potency relative to SERT WT (SERT A486E-K490A; A486E-K490A, [^3H]IMI dissociation): 77 | [^3H]IMI dissociation relative to control (source data Fig 4B) (SERT A486E-K490A; A486E-K490A, log conc -4.955): 0.2089 and 0.1837 and 0.2062 | [^3H]IMI dissociation relative to control (source data Fig 4B) (SERT A486E-K490A; A486E-K490A, log conc -5.432): 0.4714 and 0.3471 and 0.3282 | [^3H]IMI dissociation relative to control (source data Fig 4B) (SERT A486E-K490A; A486E-K490A, log conc -5.91): 0.664 and 0.6181 and 0.6285 | [^3H]IMI dissociation relative to control (source data Fig 4B) (SERT A486E-K490A; A486E-K490A, log conc -6.386): 0.93 and 0.8402 and 0.7554 | [^3H]IMI dissociation relative to control (source data Fig 4B) (SERT A486E-K490A; A486E-K490A, log conc -6.863): 1.01 and 0.967 and 0.9554 | [^3H]IMI dissociation relative to control (source data Fig 4B) (SERT A486E-K490A; A486E-K490A, log conc -7.34): 1 and 1.03 and 0.8514 | [^3H]IMI dissociation relative to control (source data Fig 4B) (SERT A486E-K490A; A486E-K490A, log conc -7.817): 1.04 and 0.999 and 0.8949 | pIC50 (SERT A486E-K490A; SERT A486E-K490A, read-out: Lu AF60097 allosteric potency ([^3H]IMI dissociation IC50)): 5.62 | ΔAP (mut/WT), change in allosteric potency relative to SERT WT (SERT D328N; D328N, [^3H]IMI dissociation): 1.7 | pIC50 (SERT D328N; SERT D328N (TM6), read-out: Lu AF60097 allosteric potency ([^3H]IMI dissociation IC50)): 7.27 | ΔAP (mut/WT), change in allosteric potency relative to SERT WT (SERT E494K; E494K, [^3H]IMI dissociation): 286 | [^3H]IMI dissociation relative to control (source data Fig 4B) (SERT E494K; E494K, log conc -5.432): 0.0801 and 0.1174 and 0.0764 | [^3H]IMI dissociation relative to control (source data Fig 4B) (SERT E494K; E494K, log conc -5.91): 0.1958 and 0.2217 and 0.1263 | [^3H]IMI dissociation relative to control (source data Fig 4B) (SERT E494K; E494K, log conc -6.386): 0.3078 and 0.3762 and 0.3174 | [^3H]IMI dissociation relative to control (source data Fig 4B) (SERT E494K; E494K, log conc -6.863): 0.5705 and 0.5743 and 0.4488 | [^3H]IMI dissociation relative to control (source data Fig 4B) (SERT E494K; E494K, log conc -7.34): 0.7153 and 0.7476 and 0.7791 | [^3H]IMI dissociation relative to control (source data Fig 4B) (SERT E494K; E494K, log conc -7.817): 0.8258 and 0.83 and 0.9008 | [^3H]IMI dissociation relative to control (source data Fig 4B) (SERT E494K; E494K, log conc -8.294): 0.8606 and 0.9262 and 0.8913 | pIC50 (SERT E494K; SERT E494K (TM10), read-out: Lu AF60097 allosteric potency ([^3H]IMI dissociation IC50)): 5.05 | ΔAP (mut/WT), change in allosteric potency relative to SERT WT (SERT F556L; F556L, [^3H]IMI dissociation): 10 | pIC50 (SERT F556L; SERT F556L (TM11), read-out: Lu AF60097 allosteric potency ([^3H]IMI dissociation IC50)): 6.48 | ΔAP (mut/WT), change in allosteric potency relative to SERT WT (SERT F556R; F556R, [^3H]IMI dissociation): >300 | pIC50 (SERT F556R; SERT F556R (TM11), read-out: Lu AF60097 allosteric potency ([^3H]IMI dissociation IC50)): ≤ 5.00
SMILES: NC(=O)c1ccc2c(c1)CO[C@@]2(CCCN1CCC(c2ccc3ccc(=O)[nH]c3c2)CC1)c1ccc(F)cc1 [Lu AF60097, (S)-1-(4-fluorophenyl)-1-(3-(4-(2-oxo-1,2-dihydroquinolin-7-yl)piperidin-1-yl)propyl)-1,3-dihydroisobenzofuran-5-carboxamide]
[^3H]S-CIT dissociation relative to control (source data Fig 3B) (SERT WT [1]; log conc -4.47756): 0.2646 and 0.3943 and 0.2986 and 0.219 and 0.3366 | [^3H]S-CIT dissociation relative to control (source data Fig 3B) (SERT WT [1]; log conc -4.95468): 0.4248 and 0.6032 and 0.3921 and 0.3044 and 0.3481 | [^3H]S-CIT dissociation relative to control (source data Fig 3B) (SERT WT [1]; log conc -5.4318): 0.6087 and 0.8042 and 0.6275 and 0.541 and 0.6453 | [^3H]S-CIT dissociation relative to control (source data Fig 3B) (SERT WT [1]; log conc -5.9101): 0.7519 and 0.9034 and 0.8094 and 0.7437 and 0.8779 | [^3H]S-CIT dissociation relative to control (source data Fig 3B) (SERT WT [1]; log conc -6.38561): 0.8673 and 0.9045 and 0.9664 and 0.838 and 0.8643 | [^3H]IMI dissociation relative to control (source data Fig 3C) (SERT WT [2]; SERT WT, log conc -7.3398): 0.5967 and 0.5153 and 0.3551 and 0.4862 and 0.4455 | [^3H]IMI dissociation relative to control (source data Fig 3C) (SERT WT [2]; SERT WT, log conc -7.817): 0.6907 and 0.7383 and 0.5957 and 0.7538 and 0.5364 | [^3H]IMI dissociation relative to control (source data Fig 3C) (SERT WT [2]; SERT WT, log conc -8.2941): 0.7767 and 0.8969 and 0.8389 and 0.8612 and 0.685 | Lu AF60097 allosteric potency ([^3H]IMI dissociation IC50) (SERT F556R; SERT F556R (TM11)): complete ablation of the allosteric potency

Reference: paper PMC7083837 (Nature Communications, 2020)
